Measurements reported in patent US9428464B2, “Kynurenine-3-monooxygenase inhibitors, pharmaceutical compositions, and methods of use thereof” (CHDI Foundation, Inc., priority 2011, dated 2016).

Tested on: KMO
Experiment: KMO activity assay: L-Kynurenine hydroxylation to 3-Hydroxy-Kynurenine, quantified by LC/MS
Format: biochemical
Conditions: compound at 10 uM; footnote: some portion of activity of amides may be due to contribution of acid precursor
Method: A generalized procedure for monitoring L-Kynurenine (KYN) hydroxylation to form product 3-Hydroxy-Kynurenine (3OH-KYN) by LC/MS is described below. Product is quantified by multiple reaction monitoring using MS.
A method of monitoring L-Kynurenine (KYN) hydroxylation to form product 3-Hydroxy-Kynurenine (3OH-KYN) by LC/MS is described below. Product is quantified by multiple reaction monitoring.
• Compound: Stock concentrations: 10 mM in 100% DMSO • Enzyme: KMO enzyme prepared at Evotec via mitochondria isolation from CHO-GST HIS KMO cells • Substrate: L-Kynurenine (Sigma: Cat #K3750) • [stock concentration: 10 mM in 100 mM potassium phosphate buffer, pH 7.4]
A method of monitoring L-Kynurenine (KYN) hydroxylation to form 3-Hydroxy-Kynurenine (3OH-KYN) by LC/MS is described. Product is quantified by multiple reaction monitoring (MRM method).

Compound	% Inhibition at 10 uM
CN1CCN(C(=O)c2cc(-c3ccc(Cl)c(Cl)c3)ncn2)CC1=O [4-[6-(3,4-Dichloro-phenyl)-pyrimidine-4-carbonyl]-1-methyl-piperazin-2-one]	87.44%
CC1C(=O)NCCN1C(=O)c1cc(-c2ccc(Cl)c(Cl)c2)ncn1 (centres unmarked) [4-[6-(3,4-Dichloro-phenyl)-pyrimidine-4-carbonyl]-3-methyl-piperazin-2-one]	97.9%
O=C1CN(C(=O)c2cc(-c3ccc(Cl)c(Cl)c3)ncn2)CCN1 [4-[6-(3,4-Dichloro-phenyl)-pyrimidine-4-carbonyl]-piperazin-2-one]	101.6%
O=C1CN(C(=O)c2cc(-c3ccc(F)c(F)c3)ncn2)CCN1 [4-[6-(3,4-Difluoro-phenyl)-pyrimidine-4-carbonyl]-piperazin-2-one]	100.995%
O=C1CN(C(=O)c2cc(-c3cccc(Br)c3)ncn2)CCN1 [4-[6-(3-Bromo-phenyl)-pyrimidine-4-carbonyl]-piperazin-2-one]	96.625%
O=C1CN(C(=O)c2cc(-c3ccc(F)c(Cl)c3)ncn2)CCN1 [4-[6-(3-Chloro-4-fluoro-phenyl)-pyrimidine-4-carbonyl]-piperazin-2-one]	100.85%
O=C(N[C@H]1CCCc2ccccc21)c1cc(-c2ccc(Cl)c(Cl)c2)ncn1 [6-(3,4-Dichloro-phenyl)-pyrimidine-4-carboxylic acid (1,2,3,4-tetrahydro-naphthalen-1S-yl)-amide]	95.92%
O=C(NC1CN2CCC1CC2)c1cc(-c2ccc(Cl)c(Cl)c2)ncn1 (centres unmarked) [6-(3,4-Dichloro-phenyl)-pyrimidine-4-carboxylic acid (1-aza-bicyclo[2.2.2]oct-3-yl)-amide]	100.905%
Cl.O=C(NCC12CCN(CC1)CC2)c1cc(-c2ccc(Cl)c(Cl)c2)ncn1 [6-(3,4-Dichloro-phenyl)-pyrimidine-4-carboxylic acid (1-aza-bicyclo[2.2.2]oct-4-ylmethyl)-amide hydrochloride salt]	65.78%
Cn1nc(NC(=O)c2cc(-c3ccc(Cl)c(Cl)c3)ncn2)c2ccccc21 [6-(3,4-Dichloro-phenyl)-pyrimidine-4-carboxylic acid (1-methyl-1H-indazol-3-yl)-amide]	93.95%
Cn1ccc(NC(=O)c2cc(-c3ccc(Cl)c(Cl)c3)ncn2)n1 [6-(3,4-Dichloro-phenyl)-pyrimidine-4-carboxylic acid (1-methyl-1H-pyrazol-3-yl)-amide]	100.05%
O=C(NC1(c2ccccc2)CC1)c1cc(-c2ccc(Cl)c(Cl)c2)ncn1 [6-(3,4-Dichloro-phenyl)-pyrimidine-4-carboxylic acid (1-phenyl-cyclopropyl)-amide]	96.68%
CC(NC(=O)c1cc(-c2ccc(Cl)c(Cl)c2)ncn1)C1CCNCC1.Cl (centres unmarked) [6-(3,4-Dichloro-phenyl)-pyrimidine-4-carboxylic acid (1-piperidin-4-yl-ethyl)-amide hydrochloride salt]	85.09%
CC1(C)CC(NC(=O)c2cc(-c3ccc(Cl)c(Cl)c3)ncn2)CC(C)(C)N1.Cl [6-(3,4-Dichloro-phenyl)-pyrimidine-4-carboxylic acid (2,2,6,6-tetramethyl-piperidin-4-yl)-amide hydrochloride salt]	99.59%
CC1(C)CC(NC(=O)c2cc(-c3ccc(Cl)c(Cl)c3)ncn2)CC(C)(C)N1 [6-(3,4-Dichloro-phenyl)-pyrimidine-4-carboxylic acid (2,2,6,6-tetramethyl-piperidin-4-yl)-amide]	100.11%
Cc1cc(C)c(NC(=O)c2cc(-c3ccc(Cl)c(Cl)c3)ncn2)c(C)c1 [6-(3,4-Dichloro-phenyl)-pyrimidine-4-carboxylic acid (2,4,6-trimethyl-phenyl)-amide]	70.84%
Cc1ccnc(C)c1NC(=O)c1cc(-c2ccc(Cl)c(Cl)c2)ncn1 [6-(3,4-Dichloro-phenyl)-pyrimidine-4-carboxylic acid (2,4-dimethyl-pyridin-3-yl)-amide]	85.37%
CN(CCN)C(=O)c1cc(-c2ccc(Cl)c(Cl)c2)ncn1.O=C(O)C(F)(F)F [6-(3,4-Dichloro-phenyl)-pyrimidine-4-carboxylic acid (2-amino-ethyl)-methyl-amide, trifluoro-acetic acid salt]	64.52%
CC(C)(O)CNC(=O)c1cc(-c2ccc(Cl)c(Cl)c2)ncn1 [6-(3,4-Dichloro-phenyl)-pyrimidine-4-carboxylic acid (2-hydroxy-2-methyl-propyl)-amide]	57.19%

Compound	% Inhibition at 10 uM
Cc1cnc(NC(=O)c2cc(-c3ccc(Cl)c(Cl)c3)ncn2)c(C)n1 [6-(3,4-Dichloro-phenyl)-pyrimidine-4-carboxylic acid (3,5-dimethyl-pyrazin-2-yl)-amide]	97.84%
Cc1nsc(NC(=O)c2cc(-c3ccc(Cl)c(Cl)c3)ncn2)n1 [6-(3,4-Dichloro-phenyl)-pyrimidine-4-carboxylic acid (3-methyl-[1,2,4]-thiadiazol-5-yl)-amide]	100.16%
Cl.O=C(Nc1cccc(N2CCOCC2)c1)c1cc(-c2ccc(Cl)c(Cl)c2)ncn1 [6-(3,4-Dichloro-phenyl)-pyrimidine-4-carboxylic acid (3-morpholin-4-yl-phenyl)-amide hydrochloride salt]	99.76%
O=C(Nc1cccc(N2CCOCC2)c1)c1cc(-c2ccc(Cl)c(Cl)c2)ncn1 [6-(3,4-Dichloro-phenyl)-pyrimidine-4-carboxylic acid (3-morpholin-4-yl-phenyl)-amide]	100.15%
Cl.O=C(Nc1cccc(C2CNCCN2)c1)c1cc(-c2ccc(Cl)c(Cl)c2)ncn1 (centres unmarked) [6-(3,4-Dichloro-phenyl)-pyrimidine-4-carboxylic acid (3-piperazin-2-yl-phenyl)-amide hydrochloride salt]	96.58%
Cl.O=C(Nc1cccc(C2CCNCC2)c1)c1cc(-c2ccc(Cl)c(Cl)c2)ncn1 [6-(3,4-Dichloro-phenyl)-pyrimidine-4-carboxylic acid (3-piperidin-4-yl-phenyl)-amide hydrochloride salt]	69.06%
O=C(Nc1cc(C(F)(F)F)no1)c1cc(-c2ccc(Cl)c(Cl)c2)ncn1 [6-(3,4-Dichloro-phenyl)-pyrimidine-4-carboxylic acid (3-trifluoromethyl-isoxazol-5-yl)-amide]	101.875%
CN(C)C1(CNC(=O)c2cc(-c3ccc(Cl)c(Cl)c3)ncn2)CCOCC1.Cl [6-(3,4-Dichloro-phenyl)-pyrimidine-4-carboxylic acid (4-dimethylamino-tetrahydro-pyran-4-ylmethyl)-amide hydrochloride salt]	96.81%
O=C(NCC1(O)CCOCC1)c1cc(-c2ccc(Cl)c(Cl)c2)ncn1 [6-(3,4-Dichloro-phenyl)-pyrimidine-4-carboxylic acid (4-hydroxy-tetrahydro-pyran-4-ylmethyl)-amide]	74.49%
Cl.O=C(Nc1ccc(N2CCOCC2)cc1)c1cc(-c2ccc(Cl)c(Cl)c2)ncn1 [6-(3,4-Dichloro-phenyl)-pyrimidine-4-carboxylic acid (4-morpholin-4-yl-phenyl)-amide hydrochloride salt]	76.95%
O=C(Nc1ccc(N2CCOCC2)cc1)c1cc(-c2ccc(Cl)c(Cl)c2)ncn1 [6-(3,4-Dichloro-phenyl)-pyrimidine-4-carboxylic acid (4-morpholin-4-yl-phenyl)-amide]	101.19%
Cl.O=C(Nc1ccc(N2CCNCC2)cc1)c1cc(-c2ccc(Cl)c(Cl)c2)ncn1 [6-(3,4-Dichloro-phenyl)-pyrimidine-4-carboxylic acid (4-piperazin-1-yl-phenyl)-amide hydrochloride salt]	93.13%
O=C(Nc1ccc(N2CCNCC2)cc1)c1cc(-c2ccc(Cl)c(Cl)c2)ncn1 [6-(3,4-Dichloro-phenyl)-pyrimidine-4-carboxylic acid (4-piperazin-1-yl-phenyl)-amide]	43.46%
Cc1nnc(CNC(=O)c2cc(-c3ccc(Cl)c(Cl)c3)ncn2)o1 [6-(3,4-Dichloro-phenyl)-pyrimidine-4-carboxylic acid (5-methyl-[1,3,4]oxadiazol-2-ylmethyl)-amide]	100.815%
O=C1CCC(NC(=O)c2cc(-c3ccc(Cl)c(Cl)c3)ncn2)N1 (centres unmarked) [6-(3,4-Dichloro-phenyl)-pyrimidine-4-carboxylic acid (5-oxo-pyrrolidin-2-yl)-amide]	93.08%
O=C1CC(NC(=O)c2cc(-c3ccc(Cl)c(Cl)c3)ncn2)CN1 (centres unmarked) [6-(3,4-Dichloro-phenyl)-pyrimidine-4-carboxylic acid (5-oxo-pyrrolidin-3-yl)-amide]	83.73%
CC(C)(C)c1nnc(NC(=O)c2cc(-c3ccc(Cl)c(Cl)c3)ncn2)o1 [6-(3,4-Dichloro-phenyl)-pyrimidine-4-carboxylic acid (5-tert-butyl-[1,3,4]oxadiazol-2-yl)-amide]	101.4%
O=C(Nc1nnc(C(F)(F)F)o1)c1cc(-c2ccc(Cl)c(Cl)c2)ncn1 [6-(3,4-Dichloro-phenyl)-pyrimidine-4-carboxylic acid (5-trifluoromethyl-[1,3,4]oxadiazol-2-yl)-amide]	102.78%
Cc1ccc(NC(=O)c2cc(-c3ccc(Cl)c(Cl)c3)ncn2)nn1 [6-(3,4-Dichloro-phenyl)-pyrimidine-4-carboxylic acid (6-methyl-pyridazin-3-yl)-amide]	77.125%
